The values below come from paper PMC12362764, “Novel Cyano‐Artemisinin Dimer ZQJ29 Targets PARP1 to Induce Ferroptosis in Pancreatic Cancer Treatment” (Advanced Science, 2025).

Each structure is given as a SMILES string.

Test [1] has as its target PARP1 (Homo sapiens, UniProt P09874). Kind of test: DARTS. To be noted: enzyme-lysate ratio 1:3000, higher ZQJ29 concentrations. Further details: Total cellular proteins from PANC‐1 and KP4 were extracted using M‐PER lysis buffer; endogenous in cells; host or cells: PANC-1 and KP4 pancreatic cancer cells. Type of test: binding. How it is done:
Total cellular proteins from PANC‐1 and KP4 were extracted using M‐PER lysis buffer (Thermo Fisher, USA). Aliquots of 50 µg of protein were taken from the lysate and placed into each 1.5 mL tube. Different concentrations of ZQJ29 were added to some tubes, while control tubes received an equal amount of DMSO. The mixtures were incubated at room temperature for 1 h. After incubation, Pronase was added to the mixture of cellular proteins at a ratio of Pronase: protein = 1: 3000 for digestion at room temperature for 15 min. Following digestion, 5 × loading buffer was added, and the samples were heated at 100 °C for 10 min before being used for western blot analysis.

For test [2], the system named is PANC-1 tumors. Put plainly: PANC-1 subcutaneous xenograft antitumor activity. Type of test: in vivo, BALB/c nude mice. On the procedure:
Five‐week‐old male BALB/c nude mice were purchased from Shanghai Jihui Laboratory Animal Breeding Co., Ltd. (Shanghai, China). After a one‐week acclimatization period, PANC‐1 cells were subcutaneously injected at a dose of 5 × 10^6 cells per mouse. Four weeks post‐injection, once tumor volumes reached 50–100 mm^3, the tumor‐bearing animals were randomly divided into four groups, each consisting of six animals. ZQJ29 was prepared in a 0.5% CMC‐Na solution, while OXA was dissolved in saline. The control group was treated with oral gavage of 0.5% CMC‐Na, while the positive control group was administered intraperitoneal injections of OXA at a dosage of 3 mg kg^−1 every three days. The test groups were treated with oral gavage of ZQJ29 at dosages of 25 and 50 mg kg day^−1. Mouse weights were monitored every other day. Tumor measurements were taken every other day using calipers, and the tumor volume was calculated using the following formula: ½ × length × width^2. Drug administered continued for three weeks. After blood collection at the end of the administration, the mice were humanely euthanized, and their vital organs were promptly harvested, preserved, and embedded in paraffin for H&E staining.

The test system of test [3] is PANC-1 and KP4 cells. Put plainly: Wound healing (cell migration) assay. Type of test: cell-based. To be noted: 0, 1, 2.5, 5 µM; 12 and 24 h. How it is done: PANC‐1 and KP4 cells were cultured in 6‐well plates until complete confluence was reached. A “scratch” or “wound” was made with a sterile 10 µL pipette tip. Following this, the cells were treated with varying concentrations of ZQJ29 (0, 1, 2.5, and 5 µM). After 12 and 24 h, migration activity were observed and captured using an inverted EVOS microscope (Thermo Fisher Scientific, USA). The number of migrated cells were then quantified.

The subject of test [4] is PARP1. Put plainly: PARP1 expression (western blot, immunofluorescence). Type of test: cell-based. On the procedure:
For western blotting analysis, ZQJ29‐treated cells were lysed with RIPA Lysis Buffer (Yeasen, Shanghai, China) containing protease and phosphatase inhibitors (Yeasen, Shanghai, China) on ice. The cell lysates were quantified using the BCA Protein Assay Kit (Beyotime, Shanghai, China). Samples were subjected to SDS‐PAGE and transferred to PVDF membranes (Beyotime, Shanghai, China). The membranes were blocked with 5% nonfat milk in TBST (Buffered Saline with 0.1% Tween 20) for 1 h, followed by overnight incubation at 4 °C with primary antibodies. After washing the membranes three times with TBST, they were incubated with the appropriate secondary antibodies for 2 h at room temperature. Following another three times with TBST, the bands on the membranes were detected using the ECL‐Plus Western Blotting Detection System (Yeasen, Shanghai, China).
PARP1 expression in the cell nucleus was detected using immunofluorescence. The cells were seeded in a 12‐well plate and treated with ZQJ29 (0, 1, 2.5, and 5 µM) after complete adhesion. After a specific duration of treatment, fixation, blocking, and antibody incubation were performed, and images were captured using a Cytation 5‐cell imaging microplate detection system.
In general terms: In western blotting, separated proteins are transferred to a membrane and probed.

For test [5], the system named is PANC-1. Kind of test: Label-free proteomics. Type of test: cell-based. To be noted: PANC-1, 5 µM ZQJ29 vs DMSO, 24 h. On the procedure: PANC‐1 cells were inoculated into 6‐well plates at ≈2 × 10^5 cells per well and grown for 24 h. After this period, the cells were treated with 5 µM ZQJ29 and an equal volume of solvent (DMSO) for an additional 24 h. Following treatment, the cells were removed from the incubator, and the medium was aspirated and discarded. The cells were washed twice with pre‐cooled PBS, which was then discarded. Next, 30 µL of RIPA lysis buffer containing PMSF (Yeasen, Shanghai, China) was added, and the cells were scraped off quickly using a cell scraper. The cell suspension was collected in 1.5 mL EP tubes and placed on ice. Cells were homogenized using ultrasound (3s × 15 times at 4s intervals), and the mixture was kept on ice for 10–15 min until the foam subsided. The centrifuge was pre‐cooled to 4 °C and centrifuged at 12 000 rpm for 15 min. The supernatant was collected to obtain the protein.
For each group of 3 samples, the protein concentration was determined by the BCA Protein Assay Kit (Beyotime, Shanghai, China). A total of 100 µg of protein was aspirated from each group. Five times the volume of acetone/ethanol/formic acid (50:50:0.1, v/v) was added, and the mixture was thoroughly mixed before allowing the protein to precipitate overnight at −20 °C. […] Finally, the sample was analyzed using instrumental LC‐MS (Agilent, USA).

[6] abbreviates: tumor tissue and proteomic analyses.

Sequence of PARP1 (Homo sapiens, UniProt P09874) (P09874 whole entry): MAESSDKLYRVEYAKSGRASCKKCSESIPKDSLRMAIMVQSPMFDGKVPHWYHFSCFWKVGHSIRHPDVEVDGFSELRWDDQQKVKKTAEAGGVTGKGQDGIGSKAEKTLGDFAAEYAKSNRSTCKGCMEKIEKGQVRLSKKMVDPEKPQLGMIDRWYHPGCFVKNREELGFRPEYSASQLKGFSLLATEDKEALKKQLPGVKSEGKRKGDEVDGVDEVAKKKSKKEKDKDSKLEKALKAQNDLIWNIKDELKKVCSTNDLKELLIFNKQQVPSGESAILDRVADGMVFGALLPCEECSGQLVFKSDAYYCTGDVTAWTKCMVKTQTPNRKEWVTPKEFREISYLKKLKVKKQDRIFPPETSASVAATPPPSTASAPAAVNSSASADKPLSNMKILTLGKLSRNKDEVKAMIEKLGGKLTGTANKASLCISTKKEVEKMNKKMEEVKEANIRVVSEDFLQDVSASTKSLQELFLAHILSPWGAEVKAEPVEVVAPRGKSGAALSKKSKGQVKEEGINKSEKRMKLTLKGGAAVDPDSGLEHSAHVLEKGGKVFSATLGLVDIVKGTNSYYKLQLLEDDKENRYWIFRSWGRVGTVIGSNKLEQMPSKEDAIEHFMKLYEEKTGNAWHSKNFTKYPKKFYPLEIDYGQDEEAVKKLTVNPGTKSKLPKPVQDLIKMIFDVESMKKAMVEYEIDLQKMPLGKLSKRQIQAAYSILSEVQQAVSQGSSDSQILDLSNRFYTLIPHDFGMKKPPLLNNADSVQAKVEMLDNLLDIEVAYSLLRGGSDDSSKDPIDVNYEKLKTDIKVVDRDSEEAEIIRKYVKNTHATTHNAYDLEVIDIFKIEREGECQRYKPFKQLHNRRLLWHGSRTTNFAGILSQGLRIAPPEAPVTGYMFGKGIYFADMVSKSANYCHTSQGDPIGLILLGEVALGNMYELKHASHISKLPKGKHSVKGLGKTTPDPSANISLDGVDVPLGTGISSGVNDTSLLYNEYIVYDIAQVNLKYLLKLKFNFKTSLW

Take `CC1CCC2C(C)C(OCCN(C#N)CCOC3OC4OC5(C)CCC6C(C)CCC(C3C)C46OO5)OC3OC4(C)CCC1C32OO4` (stereo not shown) [ZQJ29]: in test [1], the “PARP1 accumulation after pronase digestion” value is “increased”. The “tumor size and weight” value in test [2] (25 or 50 mg/kg oral, vs control group) is “significantly reduced”. Further, the tumor growth entry in test [2] (ZQJ29 25 and 50 mg/kg/day oral gavage, OXA 3 mg/kg i.p. every three days, three weeks, vs control) was “effectively inhibited”. The “expression of Ki67 and PCNA in tumor tissue (IHC)” value in test [2] (after treatment, vs control) is “significantly reduced”. Further, in test [2] (setting [6]), the “expression of PARP1, SLC7A11 and GPX4” value is reported as “downregulated”; the “expression of TP53” value is reported as “upregulated”. Besides, in test [3], the migration abilities result is listed as “impaired”. In test [4] (PANC-1 and KP4 cells, 0, 1, 2.5, 5 µM, 24 h), the “nucleoplasmic PARP1 levels (immunofluorescence)” value was “remarkably reduced”. In addition, the “PARP1 expression (western blot)” value in test [4] (PANC-1 and KP4 cells, time- and concentration-dependent) was “significantly reduced”. In addition, the “PARP1 protein level (proteomics)” value in test [5] was “prominently down‐regulated”.
